Laboratory results published in ChEMBL document CHEMBL1201862, “PubChem BioAssay data set” (2004).
Active and inactive are the calls of the source.

Key:
[1] = NIH3T3 cell viability loss – ATP luminescence, mouse fibroblasts, counter-screen, dose response (AID 2010); type: functional, cell-based;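 further: cells exposed to compound for about 90 hours before reading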
A-375 [2] = experiment: proliferation inhibition in MITF-low A375 cells – cell-based, cherry-pick samples, set 2, counter-screen for MITF modulator project, dose response (AID 540335); type: functional; conditions: Homo sapiens
[3] = non-specific 3'UTR reporter inhibition in Clone20-Shn3RL – cell-based, Renilla luciferase, cherry-picked, counter-screen for Shn3 inhibitor project, dose response (AID 624133); type: functional
[4] = biological target: T1, Luciferin 4-monooxygenase (Photinus pyralis, UniProt P08659); experiment: Counter Screen for Luciferase-based Assay Positives. [Related pubchem assays: 620, 618, 411 ]
cells [5] = type: functional, cell-based
Nonstructural protein 1 = Nonstructural protein 1 (Influenza A virus, UniProt Q194T2); type: functional, Influenza A virus (A/California/07/2009(H1N1))
[6] = biological target: T2, Microphthalmia-associated transcription factor (Homo sapiens, UniProt O75030); experiment: reducers of TRPM1 reporter luminescence, concentration series – cell-based, SK-MEL-5, cherry-picked, set 3, MITF inhibitor project, dose response (AID 493073); type: functional;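 further: SK-MEL-5 melanoma cells with luciferase driven by the MITF target TRPM1 promoter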
T2 sequence (O75030 whole entry): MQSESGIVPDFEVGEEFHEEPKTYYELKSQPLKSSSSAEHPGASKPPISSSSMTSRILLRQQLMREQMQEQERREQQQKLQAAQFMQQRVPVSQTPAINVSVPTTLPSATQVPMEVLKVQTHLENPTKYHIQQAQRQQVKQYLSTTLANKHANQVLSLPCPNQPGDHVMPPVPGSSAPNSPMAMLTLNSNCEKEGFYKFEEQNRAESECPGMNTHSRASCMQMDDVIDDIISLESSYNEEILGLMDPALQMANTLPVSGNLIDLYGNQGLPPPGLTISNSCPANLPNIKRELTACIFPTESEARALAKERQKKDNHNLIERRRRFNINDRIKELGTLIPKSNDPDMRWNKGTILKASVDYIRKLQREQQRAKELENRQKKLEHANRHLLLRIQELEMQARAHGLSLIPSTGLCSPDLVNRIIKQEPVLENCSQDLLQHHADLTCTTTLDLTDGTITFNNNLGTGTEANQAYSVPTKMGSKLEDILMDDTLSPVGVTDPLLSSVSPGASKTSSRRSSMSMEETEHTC

cells [7] = type: functional, cell-based; remark: listed apart in the source
[8] = Trypanosoma cruzi growth suppression in host cells – NIH3T3 host cells, beta-gal luminescence, confirmation (AID 2044); type: functional, cell-based;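 further: intracellular parasites grown in NIH/3T3 mouse fibroblasts as host cells; luminescent beta-galactosidase reporter signal from transgenic T. cruzi replicating inside host cells; inhibitors lower the luminescence signal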
[9] = loss of viability in HepG2 cells – cell-based, CellTiter-Glo, cherry-picked, cytotoxicity control for Shn3 inhibitor project, dose response (AID 624134); type: functional
[10] = reduction of Shn3 3'UTR-driven luciferase in osteoblasts – cell-based, Clone20 osteoblasts, firefly luciferase, cherry-picked, dose response (AID 624132); type: functional;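 further: firefly luciferase luminescence from reporter carrying the Shn3 3'UTR in osteoblasts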
HT-1080 = experiment: HT1080 cell viability loss – fluorescence readout (AID 620); type: functional, cell-based; conditions: Homo sapiens
[11] = biological target: T3, Replicative DNA helicase DnaB (Mycobacterium tuberculosis, UniProt P9WMR3); experiment: DnaB intein splicing inhibitors, dose response, biochemical, cell-free fluorescence (AID 449749); type: functional
T3 sequence (P9WMR3 whole entry): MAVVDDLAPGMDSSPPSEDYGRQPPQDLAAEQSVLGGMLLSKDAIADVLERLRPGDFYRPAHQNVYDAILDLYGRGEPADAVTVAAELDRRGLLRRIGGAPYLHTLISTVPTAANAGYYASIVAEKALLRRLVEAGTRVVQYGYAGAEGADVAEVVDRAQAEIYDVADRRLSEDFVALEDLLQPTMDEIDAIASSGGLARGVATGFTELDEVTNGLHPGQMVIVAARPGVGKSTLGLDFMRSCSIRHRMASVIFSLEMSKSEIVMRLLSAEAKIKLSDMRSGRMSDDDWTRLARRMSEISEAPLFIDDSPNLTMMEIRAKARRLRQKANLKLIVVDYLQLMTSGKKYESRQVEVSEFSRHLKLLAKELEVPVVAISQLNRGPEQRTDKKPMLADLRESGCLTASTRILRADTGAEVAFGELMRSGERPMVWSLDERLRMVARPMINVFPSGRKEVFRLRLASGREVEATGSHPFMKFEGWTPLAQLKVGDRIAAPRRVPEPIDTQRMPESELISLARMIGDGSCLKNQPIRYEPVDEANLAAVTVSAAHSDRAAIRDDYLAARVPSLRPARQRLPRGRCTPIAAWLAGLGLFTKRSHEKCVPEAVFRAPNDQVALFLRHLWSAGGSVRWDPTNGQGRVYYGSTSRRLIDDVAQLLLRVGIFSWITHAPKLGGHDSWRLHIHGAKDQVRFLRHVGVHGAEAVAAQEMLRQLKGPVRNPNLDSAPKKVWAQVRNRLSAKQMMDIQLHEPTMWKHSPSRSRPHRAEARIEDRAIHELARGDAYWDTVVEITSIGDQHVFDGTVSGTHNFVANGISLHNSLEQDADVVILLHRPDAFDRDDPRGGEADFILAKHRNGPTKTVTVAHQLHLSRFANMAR

A-375 [12] = experiment: MITF: Counter assay: A375 proliferation Measured in Cell-Based System Using Plate Reader - 2084-03_Inhibitor_Dose_DryPowder_Activity. [Related pubchem assays (depositor defined):AID488944]; type: functional; conditions: Homo sapiens
Protein RecA = biological target: T4, Protein RecA (Mycobacterium tuberculosis, UniProt P9WHJ3); experiment: Fluorescence Cell-Free Homogeneous Dose Retest to Identify Inhibitors of RecA-Intein Splicing Activity. [Related pubchem assays (depositor defined):AID2097, AID2223, AID489010, AID492950]; type: functional
T4 sequence (P9WHJ3 whole entry): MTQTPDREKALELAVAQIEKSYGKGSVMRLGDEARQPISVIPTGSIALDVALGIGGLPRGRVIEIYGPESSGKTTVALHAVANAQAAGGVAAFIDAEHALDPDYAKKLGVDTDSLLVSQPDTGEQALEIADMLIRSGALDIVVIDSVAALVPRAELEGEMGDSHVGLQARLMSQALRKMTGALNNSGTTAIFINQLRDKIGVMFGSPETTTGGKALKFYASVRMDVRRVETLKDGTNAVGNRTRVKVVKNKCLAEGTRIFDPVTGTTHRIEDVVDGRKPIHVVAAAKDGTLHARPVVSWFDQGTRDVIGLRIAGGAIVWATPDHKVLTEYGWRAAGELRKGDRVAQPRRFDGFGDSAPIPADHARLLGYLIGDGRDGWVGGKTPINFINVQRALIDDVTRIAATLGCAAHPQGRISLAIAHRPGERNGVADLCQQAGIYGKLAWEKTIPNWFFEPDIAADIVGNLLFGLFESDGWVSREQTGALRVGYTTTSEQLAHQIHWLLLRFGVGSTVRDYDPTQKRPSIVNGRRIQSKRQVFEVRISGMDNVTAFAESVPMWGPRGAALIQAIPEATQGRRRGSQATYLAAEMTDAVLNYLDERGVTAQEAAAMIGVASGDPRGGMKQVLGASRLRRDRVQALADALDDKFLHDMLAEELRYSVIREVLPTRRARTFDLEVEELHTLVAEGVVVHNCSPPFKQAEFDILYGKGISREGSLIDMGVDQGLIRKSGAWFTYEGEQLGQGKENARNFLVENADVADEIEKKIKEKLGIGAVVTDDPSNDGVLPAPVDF

Coagulation factor XII = biological target: T5, Coagulation factor XII (Homo sapiens, UniProt P00748); type: functional;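 further: activated factor XIIa alpha cleaving a fluorogenic AMC peptide substrate; inhibitor potency from loss of enzyme activity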
T5 sequence (P00748 whole entry): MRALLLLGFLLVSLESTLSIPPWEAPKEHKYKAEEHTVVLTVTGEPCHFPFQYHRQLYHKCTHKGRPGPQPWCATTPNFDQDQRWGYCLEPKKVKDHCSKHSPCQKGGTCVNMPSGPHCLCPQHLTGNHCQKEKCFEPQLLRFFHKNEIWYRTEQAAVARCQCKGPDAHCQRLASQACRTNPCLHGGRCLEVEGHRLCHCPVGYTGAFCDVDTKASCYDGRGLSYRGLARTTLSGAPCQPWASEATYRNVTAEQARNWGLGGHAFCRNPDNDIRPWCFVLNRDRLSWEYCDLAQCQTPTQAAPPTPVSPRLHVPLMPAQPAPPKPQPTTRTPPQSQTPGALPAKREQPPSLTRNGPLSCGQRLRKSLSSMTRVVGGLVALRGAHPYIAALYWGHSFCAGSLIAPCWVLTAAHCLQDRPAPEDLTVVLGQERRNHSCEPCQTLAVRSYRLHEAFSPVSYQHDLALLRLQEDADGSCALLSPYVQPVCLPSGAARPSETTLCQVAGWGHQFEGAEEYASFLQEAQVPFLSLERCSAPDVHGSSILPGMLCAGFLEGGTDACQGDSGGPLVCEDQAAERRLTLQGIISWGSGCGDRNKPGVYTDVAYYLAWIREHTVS

Escherichia coli = experiment: microbe, parasite or virus in culture
[13] = biological target: T6, DNA repair and recombination protein RAD54-like (Homo sapiens, UniProt Q92698); experiment: RAD54 Holliday junction migration blockers – biochemical, fluorescence, cherry-picked samples, dose series, confirmation (AID 651657); type: functional
T6 sequence (Q92698 whole entry): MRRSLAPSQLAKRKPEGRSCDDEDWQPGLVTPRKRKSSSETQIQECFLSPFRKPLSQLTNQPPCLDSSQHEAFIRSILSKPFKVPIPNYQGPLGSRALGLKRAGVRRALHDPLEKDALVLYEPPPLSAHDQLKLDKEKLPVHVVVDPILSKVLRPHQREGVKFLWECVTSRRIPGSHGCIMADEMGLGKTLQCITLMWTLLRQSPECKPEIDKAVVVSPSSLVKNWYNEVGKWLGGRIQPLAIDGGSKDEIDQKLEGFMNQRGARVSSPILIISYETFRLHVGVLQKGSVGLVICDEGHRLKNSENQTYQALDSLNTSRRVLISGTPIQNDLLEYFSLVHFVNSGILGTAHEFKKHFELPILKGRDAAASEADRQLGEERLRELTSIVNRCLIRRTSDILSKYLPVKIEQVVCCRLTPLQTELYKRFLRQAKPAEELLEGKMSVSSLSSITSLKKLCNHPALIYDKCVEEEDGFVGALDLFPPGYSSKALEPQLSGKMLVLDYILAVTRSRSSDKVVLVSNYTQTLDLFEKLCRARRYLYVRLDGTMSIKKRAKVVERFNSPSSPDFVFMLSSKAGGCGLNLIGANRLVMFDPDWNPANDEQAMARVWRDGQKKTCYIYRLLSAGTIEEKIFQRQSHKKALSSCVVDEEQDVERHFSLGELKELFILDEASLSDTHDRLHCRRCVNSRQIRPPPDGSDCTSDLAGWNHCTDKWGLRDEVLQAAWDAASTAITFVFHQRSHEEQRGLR

[14] = acridine orange displacement from DNA – biochemical, fluorescence polarization, cherry-pick, artefact control for RAD54 inhibitor project, dose response (AID 651673); type: functional
[15] = biological target: Dual specificity tyrosine-phosphorylation-regulated kinase 1A (Rattus norvegicus, UniProt Q63470); type: biochemical, Homo sapiens
[16] = biological target: T1, Luciferin 4-monooxygenase; experiment: inhibition of purified Photinus pyralis luciferase – biochemical, luminescence, dose response (AID 1891)
Trypsin = Trypsin (Sus scrofa, UniProt P00761); experiment: trypsin protease activity blockade – biochemical, quenched peptide fluorescence, cherry-pick, selectivity assay for Rce1 protease inhibitor project, dose response (AID 488789)
[17] = Luminescence Cell-Based Dose Confirmation HTS to Identify Inhibitors of Platelet Dense Granule Release. [Related pubchem assays: 1663 (Primary HTS), 1678 (Summary of Project)]; type: functional
CAAX prenyl protease 2 = CAAX prenyl protease 2 (Homo sapiens, UniProt Q9Y256); experiment: inhibition of Ras-converting CAAX protease Rce1 – biochemical, yeast membranes, quenched-peptide fluorescence, cherry-pick, dose response (AID 588849)
CAAX prenyl protease 1 = CAAX prenyl protease 1 (Saccharomyces cerevisiae S288c, UniProt P47154); experiment: yeast CAAX protease Ste24 inhibition – biochemical, S. cerevisiae, plate reader, cherry-pick, dose response (AID 488815)
[18] = biological target: Dual specificity protein phosphatase 3 (Homo sapiens, UniProt P51452); experiment: SAR VHR1 Fluorescent Assay for In Vitro dose response studies Set 3. [Related pubchem assays (depositor defined):AID1654, AID1661, AID1878]; type: functional
Chain of Dual specificity protein phosphatase 3 (P51452 whole entry): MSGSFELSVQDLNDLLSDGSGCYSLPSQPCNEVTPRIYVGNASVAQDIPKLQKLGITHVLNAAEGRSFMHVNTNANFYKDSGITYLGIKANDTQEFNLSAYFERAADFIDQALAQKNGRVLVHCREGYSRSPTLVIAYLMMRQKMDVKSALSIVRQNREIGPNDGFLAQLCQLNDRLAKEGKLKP

T1 sequence (P08659 whole entry): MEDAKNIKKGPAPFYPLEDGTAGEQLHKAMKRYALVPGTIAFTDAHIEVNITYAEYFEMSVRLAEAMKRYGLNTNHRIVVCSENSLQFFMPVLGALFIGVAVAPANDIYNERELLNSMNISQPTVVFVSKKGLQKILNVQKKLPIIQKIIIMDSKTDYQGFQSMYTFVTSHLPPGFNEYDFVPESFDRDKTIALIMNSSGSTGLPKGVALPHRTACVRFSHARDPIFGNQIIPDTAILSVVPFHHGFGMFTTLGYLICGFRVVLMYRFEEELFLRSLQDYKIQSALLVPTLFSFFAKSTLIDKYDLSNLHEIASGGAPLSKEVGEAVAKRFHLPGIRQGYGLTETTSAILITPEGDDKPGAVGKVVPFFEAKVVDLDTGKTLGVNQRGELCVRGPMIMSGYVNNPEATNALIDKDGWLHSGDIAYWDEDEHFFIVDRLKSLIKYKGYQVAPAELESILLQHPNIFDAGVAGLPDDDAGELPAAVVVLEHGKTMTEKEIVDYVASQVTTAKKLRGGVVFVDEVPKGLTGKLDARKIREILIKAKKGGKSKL
Chain of CAAX prenyl protease 2 (Q9Y256 whole entry): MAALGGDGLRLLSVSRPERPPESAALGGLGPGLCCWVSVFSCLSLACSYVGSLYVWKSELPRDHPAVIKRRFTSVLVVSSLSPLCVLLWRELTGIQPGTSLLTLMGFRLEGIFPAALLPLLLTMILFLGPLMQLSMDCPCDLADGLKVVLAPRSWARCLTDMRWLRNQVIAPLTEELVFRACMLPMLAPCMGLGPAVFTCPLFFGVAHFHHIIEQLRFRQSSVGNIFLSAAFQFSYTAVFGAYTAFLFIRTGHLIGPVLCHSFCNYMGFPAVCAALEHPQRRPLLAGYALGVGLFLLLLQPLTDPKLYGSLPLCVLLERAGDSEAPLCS
Chain of Trypsin (P00761 whole entry): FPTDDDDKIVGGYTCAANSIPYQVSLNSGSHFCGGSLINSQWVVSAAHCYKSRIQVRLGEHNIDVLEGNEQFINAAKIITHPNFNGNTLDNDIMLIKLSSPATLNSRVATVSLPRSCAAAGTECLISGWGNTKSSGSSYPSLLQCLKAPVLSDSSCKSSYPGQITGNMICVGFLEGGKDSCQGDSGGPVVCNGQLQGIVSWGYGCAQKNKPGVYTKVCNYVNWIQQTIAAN
Chain of CAAX prenyl protease 1 (P47154 whole entry): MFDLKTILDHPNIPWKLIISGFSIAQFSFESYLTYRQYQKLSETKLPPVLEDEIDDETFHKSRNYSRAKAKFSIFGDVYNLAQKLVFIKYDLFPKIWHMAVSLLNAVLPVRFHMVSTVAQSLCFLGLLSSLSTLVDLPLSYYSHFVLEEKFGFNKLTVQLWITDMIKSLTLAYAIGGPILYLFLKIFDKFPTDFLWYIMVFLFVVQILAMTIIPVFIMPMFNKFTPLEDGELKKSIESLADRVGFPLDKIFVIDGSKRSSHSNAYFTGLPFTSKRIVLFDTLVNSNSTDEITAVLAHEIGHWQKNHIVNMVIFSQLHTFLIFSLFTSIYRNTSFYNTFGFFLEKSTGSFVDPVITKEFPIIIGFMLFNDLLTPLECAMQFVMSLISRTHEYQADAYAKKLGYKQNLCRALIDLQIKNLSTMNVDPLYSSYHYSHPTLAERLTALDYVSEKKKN
Chain of Nonstructural protein 1 (Q194T2 whole entry): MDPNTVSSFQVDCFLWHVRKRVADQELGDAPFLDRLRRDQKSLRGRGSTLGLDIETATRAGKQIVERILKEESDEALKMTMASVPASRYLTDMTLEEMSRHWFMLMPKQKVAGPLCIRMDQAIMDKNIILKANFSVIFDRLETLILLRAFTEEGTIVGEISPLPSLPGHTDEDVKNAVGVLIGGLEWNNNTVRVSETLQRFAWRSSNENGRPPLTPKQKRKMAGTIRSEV

Compound: Oc1c(CN2CCCCC2)cc(COCc2ccccc2)c2cccnc12
- EC50 [1]: 6.52 µM (active)
- AC50 (A-375 [2]): 13.5 µM (active)
- AC50 [3]: 7.15 µM (active)
- EC50 [4]: > 100 µM (not active)
- EC50 (cells [5]): > 350 µM (not active)
- IC50 (Nonstructural protein 1): 1.86 µM (active)
- AC50 [6]: 2.17 µM (active)
- EC50 (cells [7]): 7.62 µM (active)
- EC50 [8]: 4.04 µM (active)
- AC50 [9]: 10.8 µM (active)
- AC50 [10]: 0.537 µM (active)
- EC50 (HT-1080): 27.9 µM (active)

Compound: O=c1c(Cl)c(Cl)cnn1Cc1ccc(F)cc1
- AC50 [11]: 39.5 µM (active)
- AC50 (A-375 [12]): 30.8 µM (active)
- EC50 (Protein RecA): 11.3 µM (active)
- AC50 [6]: 8.9 µM (active)
- IC50 (Coagulation factor XII): > 50 µM (inactive)

Compound: COc1ccccc1C(C[N+](=O)[O-])c1c[nH]c2ccccc12 (centres undefined)
- AC50 (Escherichia coli): 90.9 µM (active)

Compound: COc1ccc2cc3cc(C(=O)NCCCN4CCOCC4)oc3nc2c1
- EC50 [1]: > 60 µM (not active)
- AC50 [13]: 36.7 µM (active)
- AC50 [14]: 55.3 µM (active)
- EC50 [8]: 2.2 µM (active)
- AC50 [15]: 5.51 µM (active)

Compound: CCn1c(-c2cccs2)nc2ccccc21
- EC50 [16]: > 112 µM (not active)
- AC50 (Trypsin): 6.83 µM (active)
- EC50 [17]: > 112 µM (not active)
- AC50 (CAAX prenyl protease 2): 11.6 µM (active)
- AC50 (CAAX prenyl protease 1): 2.54 µM (active)

Compound: CSc1ccc2nc(Nc3nnc(-c4ccc5c(c4)OCCO5)o3)sc2c1
- IC50 [18]: 0.682 µM (active)
